In brackets after ≈: the same amount, converted by molar mass.
Experiments:
[1] = ordinary temperatures; cited from earlier work
[2] = saturated concentration (solubility) of cilostazol in aqueous cyclodextrin solutions, determined by HPLC; assay type: physicochemical; details: aqueous with cosolvent or surfactant or cyclodextrin, thermodynamic from solid; excess cilostazol in water for injection with the row's cyclodextrin compound at the row's concentration (g/L); shaken at 60° C. for 24 hours, membrane filtered, HPLC of filtrate
Protocol: Each of the following cyclodextrin compounds was dissolved in water for injection. To this, an excess amount of cilostazol was added and the mixture was shaken at 60° C. for 24 hours. Then, the mixture was filtered through a membrane filter to remove insoluble materials and the amount of cilostazol in the filtrate was determined by the method of HPLC (High Performance Liquid Chromatography) to calculate the saturated concentration (solubility). Cyclodextrin compounds used were alpha-cyclodextrin (Trade Name: Celdex A-100, manufactured by NIHON SHOKUHIN KAKO Co. Ltd., beta-cyclodextrin (Trade Name: Celdex B-100, manufactured by NIHON SHOKUHIN KAKO Co. Ltd.), gamma-cyclodextrin (Trade Name: Celdex C-100, manufactured by NIHON SHOKUHIN KAKO Co. Ltd.), 6-O-alpha-maltosyl-beta-cyclodextrin (manufactured by Ensuiko Sugar Refining Co., Ltd), 2-hydroxypropyl-beta-cyclodextrin (Trade Name: Celdex HP-beta-CD, manufactured by NIHON SHOKUHIN KAKO Co. Ltd), hepta-substituted sulfobutylether-beta-cyclodextrin sodium salt (hereinafter abbreviated as SBE7-beta-CD)(Trade Name: Captisol, manufactured by CyDex Inc.).
Also, as a Reference Example, the solubility of cilostazol without addition of cyclodextrin compounds was determined similarly.

O=C1CCc2cc(OCCCCc3nnnn3C3CCCCC3)ccc2N1 [Cilostazol, 6-[4-(1-cyclohexyl-1,2,3,4-Tetrazol-5-yl)butoxy]-3,4-dihydrocarbostyril]
solubility in water [1]: about 3 μg/ml
solubility at 24 h [2]: 3.5 µg/mL (≈ 9.47 µM)

Reference: patent US20040209843A1, “Aqueous cilostazol preparation for injection” (priority 2001, published 2004)
